The text below walks through data of ChEMBL document CHEMBL2046308, “Thiol-reactive compounds from garlic inhibit the epithelial sodium channel (ENaC)” (Bioorg Med Chem, 2012).

Structures are written as SMILES. Calls of active or inactive are those of the source. No cut-off for these calls is given here.

The first assay deals with T1, Amiloride-sensitive sodium channel, ENaC (Homo sapiens) (UniProt P37088+P51168+P51170). The assay is described as follows: Inhibition of human ENaC alpha-beta-gamma expressed in Xenopus laevis oocytes assessed as effect on transmembrane currents at 100 uM by two-electrode voltage-clamp technique. Type of assay: cell-based. Particulars: Oocyte. (In two-electrode clamp one electrode senses voltage and the other passes current.)
The term inhibition denotes the percentage by which the read-out fell short of the control. For the molecule `C=CCS[S+]([O-])CC=C` (stereo unspecified), the inhibition came out at 77%.

For the next assay, the target named is T1, Amiloride-sensitive sodium channel, ENaC (Homo sapiens). Description: Inhibition of human ENaC alpha-beta-gamma expressed in Xenopus laevis oocytes assessed as effect on transmembrane currents at 1 mM by two-electrode voltage-clamp technique. As to conditions: Oocyte. Type of assay: cell-based.
On to `C=CCSC[C@H](N)C(=O)O`, for which the inhibition result was “inactive”.
Still for that read-out and setting: the value for `C=CCSCC=C` was “inactive”; that for `C=CCSSSCC=C` was “inactive”.
On to `C=CC[S@+]([O-])C[C@H](N)C(=O)O`, for which the inhibition entry is “inactive”.
Still for that read-out and setting: the value for `C=CCSSCC=C` was “inactive”.
